Laboratory results reported in patent US5073557A, “Novel substituted pyrazine, formulations thereof and use in medicine” (Merck Sharp & Dohme Limited, priority 1989, dated 1991).

Legend:
Format in all cases: cell-based
[1] = target: T1, M1 muscarinic receptor (ganglion) (Rattus norvegicus, UniProt P08482); experiment: Agonist activity against muscarinic receptors in the ganglion (M1 agonist activity); settings: for EC50: ganglion
T1 construct: agonist activity against muscarinic receptors in the ganglion, heart and ileum; from tissue
T1 sequence (P08482 1-460): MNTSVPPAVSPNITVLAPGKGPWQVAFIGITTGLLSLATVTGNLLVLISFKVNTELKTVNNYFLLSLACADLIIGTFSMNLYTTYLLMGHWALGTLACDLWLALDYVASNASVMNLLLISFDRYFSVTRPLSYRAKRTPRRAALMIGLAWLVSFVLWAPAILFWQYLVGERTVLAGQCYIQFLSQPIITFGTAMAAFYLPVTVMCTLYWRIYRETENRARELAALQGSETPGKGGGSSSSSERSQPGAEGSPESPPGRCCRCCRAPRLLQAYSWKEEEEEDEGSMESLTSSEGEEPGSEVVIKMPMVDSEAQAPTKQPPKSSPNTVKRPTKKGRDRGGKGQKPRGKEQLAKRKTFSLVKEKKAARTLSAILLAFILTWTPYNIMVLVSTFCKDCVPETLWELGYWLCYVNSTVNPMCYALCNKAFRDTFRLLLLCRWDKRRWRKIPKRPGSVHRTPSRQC
Source text: (§1) European Patent Application No. 89200147 (Publication No. 327155) discloses a class of pyrazines, pyridazines or pyrimidines, and salts and prodrugs thereof, substituted on one of the ring carbon atoms thereof with a non-aromatic azacyclic or azabicyclic ring system; and independently substituted on each of the other ring carbon atoms with a substituent of low lipophilicity or a hydrocarbon substituent, which compounds stimulate cholinergic transmission.
(§2) The following results are obtained in pharmacological assays to allow agonist activity against muscarinic receptors in the ganglion, heart and ileum.

[2] = target: T2, M2 muscarinic receptor (heart) (Cavia porcellus, UniProt H0VRN8); experiment: Pharmacological assay on muscarinic receptors in the heart (M2 antagonist activity); settings: read-out: Heart (pA2) (converted)
T2 construct: agonist activity against muscarinic receptors in the ganglion, heart and ileum; from tissue
T2 sequence (H0VRN8 1-466): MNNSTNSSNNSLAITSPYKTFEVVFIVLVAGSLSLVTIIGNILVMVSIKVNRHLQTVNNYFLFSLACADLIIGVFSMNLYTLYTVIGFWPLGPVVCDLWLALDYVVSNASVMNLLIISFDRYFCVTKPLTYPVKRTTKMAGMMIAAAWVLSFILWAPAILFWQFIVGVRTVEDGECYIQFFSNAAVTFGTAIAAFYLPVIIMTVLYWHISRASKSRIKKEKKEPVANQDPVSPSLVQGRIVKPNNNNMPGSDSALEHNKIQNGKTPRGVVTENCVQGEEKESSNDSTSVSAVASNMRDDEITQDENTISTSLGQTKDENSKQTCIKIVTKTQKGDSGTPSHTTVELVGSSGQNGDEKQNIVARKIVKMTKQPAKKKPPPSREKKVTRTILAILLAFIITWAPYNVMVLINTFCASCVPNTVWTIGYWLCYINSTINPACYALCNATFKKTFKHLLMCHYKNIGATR
Source text: as §1, §2

[3] = target: T3, M3 muscarinic receptor (ileum) (Cavia porcellus, UniProt H0W1Z3); experiment: Agonist activity against muscarinic receptors in the ileum (M3 agonist activity)
T3 construct: agonist activity against muscarinic receptors in the ganglion, heart and ileum; from tissue; host or cells: ileum
T3 sequence (H0W1Z3 1-590): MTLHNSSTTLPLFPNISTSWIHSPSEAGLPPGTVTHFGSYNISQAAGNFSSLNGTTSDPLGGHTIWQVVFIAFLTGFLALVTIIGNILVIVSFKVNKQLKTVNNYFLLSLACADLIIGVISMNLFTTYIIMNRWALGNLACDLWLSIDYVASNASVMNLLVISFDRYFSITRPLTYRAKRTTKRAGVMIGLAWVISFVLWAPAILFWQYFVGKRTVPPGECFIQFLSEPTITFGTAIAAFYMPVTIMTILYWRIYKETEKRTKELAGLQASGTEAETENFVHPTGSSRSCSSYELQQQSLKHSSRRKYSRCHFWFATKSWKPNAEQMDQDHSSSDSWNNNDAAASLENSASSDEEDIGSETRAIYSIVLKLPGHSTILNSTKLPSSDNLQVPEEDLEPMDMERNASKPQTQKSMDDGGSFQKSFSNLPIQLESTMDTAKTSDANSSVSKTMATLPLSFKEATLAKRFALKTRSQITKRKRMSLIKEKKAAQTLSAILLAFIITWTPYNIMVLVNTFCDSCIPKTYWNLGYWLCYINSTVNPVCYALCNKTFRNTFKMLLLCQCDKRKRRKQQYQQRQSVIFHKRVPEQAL
Source text: as §1, §2

Row | SMILES | EC50 [1] [nM] | Kb [2] [nM] | EC50 [3] [nM] | potency at the M1 receptor relative to the corresponding (S)-enantiomer ([1]; M1 receptor, versus (S)-enantiomer) | potency at the M1 receptor relative to the corresponding racemate ([1]; M1 receptor, versus racemate)
1 | Clc1cncc([C@@H]2CN3CCC2CC3)n1 [(S) isomer] | 200 | 126 | 600 |  | 
2 | Clc1cncc(C2CN3CCC2CC3)n1 (racemic) [racemate, 3-[2-(6-chloropyrazin)yl]-1-azabicyclo[2.2.2]octane] | 100 | 79.4 | 30 |  | 
3 | Clc1cncc([C@H]2CN3CCC2CC3)n1 [(1), (R)-3-[2-(6-chloropyrazin)yl]-1-azabicyclo[2.2.2]octane] | 50 | 63.1 | 40 | four times | twice the potency
